Measured values: patent US9303044B2, “7-(piperazin-1-yl)-5H-[1,3,4]thiadiazolo[3,2-A]pyrimidin-5-ones for the treatment of thrombotic disorders” (The Rockefeller University, priority 2012, dated 2016)

Tested on: platelet aggregation
Assay: ADP-induced platelet aggregation assay in citrated platelet-rich plasma
Format: cell-based
Settings: Homo sapiens, initial slopes, read-out: IC50, inhibition of platelet aggregation
Protocol: The platelet aggregation assay may be conducted by modification of the assay as disclosed in Blue et al., Blood 2008, 111, 1248, the contents of which are incorporated by reference in their entirety. Citrated platelet-rich plasma (PRP), may be generated by the centrifugation of whole blood at 650 g for 4 minutes at 22° C., and may then be incubated in aggregometer cuvettes with Compounds of the Invention (final concentration of 100 μM, 30 μM, 10 μM, 1 μM, 0.30 μM, 0.1 μM, 0.03 μM and 0.01 μM) or controls for 15 minutes at 37° C. After 30 seconds in the aggregometer (Bio/Data PAP8; Horsham, Pa.) at 37° C. with stiffing, ADP (5-20 μM) may be added to induce aggregation and the light transmittance is measured for 8 minutes. The initial slopes of aggregation in the presence of different concentrations of the Compound tested may be used to generate an IC50.

IC50 | Compound
53.6 ± 15.5 nM | NCC(=O)Nc1cc(-c2nn3c(=O)cc(N4CCNCC4)nc3s2)ccn1 [Example 14-B, 2-amino-N-(4-(5-oxo-7-(piperazin-1-yl)-5H-[1,3,4]thiadiazolo[3,2-a]pyrimidin-2-yl)pyridin-2-yl)acetamide]
62 ± 10 nM | NCC(=O)Nc1cncc(-c2nn3c(=O)cc(N4CCNCC4)nc3s2)c1 [Example 14-C, 2-Amino-N-(5-(5-oxo-7-(piperazin-1-yl)-5H-[1,3,4]thiadiazolo[3,2-a]pyrimidin-2-yl)pyridin-3-yl)acetamide]
